In general, IC50 refers to the point on the concentration scale where inhibition reaches its midpoint.

In this test the target is T1, HIV-1 reverse transcriptase (HIV-1 RT) (HIV-1 M:B_HXB2R, UniProt P04585).
T1 construct: gene gag-pol; recombinant HIV-1 RT used with commercial ELISA kit (Roche Molecular Biochemicals); mature chains cut from Gag-Pol polyprotein; with p51 RT
The test can be described thus: RT ELISA (DIG-labelled reaction mixture, anti-DIG-POD, ABTS; Roche kit). Format: biochemical. As to conditions: 37 °C, 15 h. From the text: RT ELISA (DIG-labelled reaction mixture, anti-DIG-POD, ABTS; Roche kit) on HIV-1 reverse transcriptase (HIV-1 RT)
Turning to `CC(=O)N(C)/C=C/c1ccccc1Br` [5c, (E)-N-(2-bromostyryl)-N-methylacetamide], the half-maximal inhibitory concentration (IC50) came out at 339 ± 107 µM.

For the compound `CC(=O)N(/C=C/c1ccccc1Br)C(C)=O` [5f, (E)-N-(2-bromostyryl)-N-acetylacetamide], the 50% inhibitory concentration (IC50) came out at 320 ± 22 µM.

On to `CC(=O)N(/C=C/c1ccccc1Br)Cc1c(F)cccc1F` [5h, (E)-N-(2-bromostyryl)-N-2’,6’-difluorobenzylacetamide], for which the IC50 came to 295 ± 9 µM. The value for `CC(=O)N(/C=C/c1ccccc1Br)Cc1cc(F)cc(F)c1` [5i, (E)-N-(2-bromostyryl)-N-3’,5’-difluorobenzylacetamide] was 97 ± 13 µM; that for `CC(=O)N(C)/C=C/c1ccccc1Cl` [5k, (E)-N-(2-chlorostyryl)-N-methylacetamide] was 434 ± 44 µM. The result for `CCN(/C=C/c1ccccc1Cl)C(C)=O` [5l, (E)-N-(2-chlorostyryl)-N-ethylacetamide] reads 521 ± 11 µM; that for `CC(=O)N(C)/C=C/c1ccccc1F` [5n, (E)-N-(2-fluorostyryl)-N-methylacetamide], 477 ± 107 µM; that for `CC(=O)N(C)/C=C/c1ccccc1C` [5p, (E)-N-(2-methylstyryl)-N-methylacetamide], 487 ± 27 µM. For `COc1ccc(/C=C/N(C)C(C)=O)c(OC)c1` [5r, (E)-N-(2,4-dimethoxystyryl)-N-methylacetamide], the half-inhibitory concentration (IC50) turned out to be 373 ± 40 µM.

On to `O=C(O)P(=O)(O)O` [PFA, reference compound], for which the half-maximal inhibitory concentration (IC50) came to 5 µM.

The values are drawn from PMC6254728, “Synthesis and Anti-Human Immunodeficiency Virus Type 1 Activity of (E)-N-Phenylstyryl-N-alkylacetamide Derivatives” (Molecules, 2009).
